Drawing on BindingDB's records for doi:10.1016/j.chembiol.2003.08.010 (Brigham and Women's Hospital, 2003), this text covers IC50 for 55 compounds.

SMILES strings stand for the structures.

The target of one test is T1, Ubiquitin carboxyl-terminal hydrolase isozyme L1 (Mus musculus, UniProt Q9R0P9).
T1 sequence (Q9R0P9 whole entry): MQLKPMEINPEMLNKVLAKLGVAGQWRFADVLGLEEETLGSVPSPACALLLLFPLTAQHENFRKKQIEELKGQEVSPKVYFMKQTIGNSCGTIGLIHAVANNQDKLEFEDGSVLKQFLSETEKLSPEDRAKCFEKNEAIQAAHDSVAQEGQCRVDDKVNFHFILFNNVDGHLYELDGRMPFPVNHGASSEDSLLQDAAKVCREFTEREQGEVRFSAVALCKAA
The test is described as follows: Inhibition Activity Assay. As to conditions: pH 7.6; 25 °C. The text has this:
(§1) Inhibition activity and selectivity for UCH-L1 and UCH-L3.
A word on the IC50: it is the concentration at which inhibition is half-maximal. Consider `CC(C)(C)OC(=O)[C@H](Cc1ccccc1)NC(=O)c1[nH]cnc1C(=O)Nc1cccc(Cl)c1`, for which the IC50 amounted to 17 µM.

Compound `COC(=O)[C@H]1[C@H](CCc2ccccc2)NC(=O)N(Cc2ccccc2)[C@@H]1C` gave an IC50 of 51 µM. For `CN1CCN(C2Cc3ccc(Cl)cc3Sc3ccc(F)cc32)CC1` (stereo unspecified), the midpoint of inhibition, the IC50, lay at 321 µM.

`Cc1ccccc1C(=O)Nc1scc(-c2ccc(Br)cc2)c1C(=O)O` yielded an IC50 of 6 µM.

In the case of `O=C1C=CC([N+](=O)[O-])=CC1/C=N/NC(=O)C(O)(c1ccccc1)c1ccccc1` (stereo unspecified), the midpoint of inhibition, the IC50, lay at 9.5 µM. On to `COc1ccc(N=Nc2cc(-c3ccccc3)ccc2O)cc1`, for which the IC50 was 12 µM. The same measure, in the same setting: then `CCCCn1c(=O)c(C(=O)NCc2ccccc2)c(O)c2ccccc21`, with 6.1 µM; and `Cc1ccc(C(=O)NC(=S)NNC(=O)c2cccc([N+](=O)[O-])c2)cc1`, with 36 µM; and `CCCOc1ccc(/C=C/c2c([N+](=O)[O-])c(=O)n(C)c(=O)n2C)cc1` [1,3-dimethyl-5-nitro-6-[(E)-2-(4-propoxyphenyl)vinyl]pyrimidine-2,4-quinone], with 0.81 µM.

As for `COc1cccc(NC(=O)Nc2nc(SC(C)(C)C)ns2)c1` [1-(3-tert-butylsulfanyl-1,2,4-thiadiazol-5-yl)-3-(3-methoxyphenyl)urea], it took 16 µM to reach half-maximal inhibition (IC50). Still for that read-out and setting: then `CCSc1nsc(NC(=O)Nc2cccc(F)c2)n1` [1-[3-(ethylthio)-1,2,4-thiadiazol-5-yl]-3-(3-fluorophenyl)urea], with 16 µM; and `Cc1cc(Cl)c2oc(C(=O)N3CCC(O)(c4ccccc4)CC3)c(C)c2c1` [1-[(7-chloro-3,5-dimethyl-1-benzofuran-2-yl)carbonyl]-4-phenylpiperidin-4-ol], with 1.2 µM; and `NC(=S)NN=Cc1ccc(C23CC4CC(CC(C4)C2)C3)cc1` [1-[[4-(1-adamantyl)phenyl]methylideneamino]thiourea], with 52 µM. Take `CCCCn1c(=O)c(C(=O)NCCc2ccccc2)c(O)c2ccccc21` [1-butyl-2-oxidanyl-4-oxidanylidene-N-(2-phenylethyl)quinoline-3-carboxamide]: the IC50 is 12 µM. On the same count and under the same terms, then `Cc1ccc(-c2cc(-c3ccccc3)nc(N(C)N)n2)cc1` [1-methyl-1-[4-(4-methylphenyl)-6-phenylpyrimidin-2-yl]hydrazine], with 4.1 µM. On the same count and under the same terms, then `COc1ccc2nc(C3CCCCC3)nc(C3CCCCC3)c2c1` [2,4-Dicyclohexyl-6-methoxy-quinazoline], with 126 µM; and `Cc1cccc(OCC(=O)Nc2ccncc2)c1` [2-(3-methylphenoxy)-N-pyridin-4-yl-ethanamide], with 36 µM. Still for that read-out and setting: under `Cc1ccc(Cn2c(C(CO)Nc3nc(-c4ccc(F)cc4)cs3)nc3ccccc32)cc1` (stereo unspecified) [2-[4-(4-Fluoro-phenyl)-thiazol-2-ylamino]-2-[1-(4-methyl-benzyl)-1H-benzoimidazol-2-yl]-ethanol] stands 8.8 µM; under `CCOC(=O)C1=C(C)N=c2sc(=Cc3ccc(OCC(=O)O)c(OC)c3)c(=O)n2C1c1ccc(Cl)cc1` (stereo unspecified) [2-[4-[[6-carbethoxy-5-(4-chlorophenyl)-3-keto-7-methyl-5H-thiazolo[3,2-a]pyrimidin-2-ylidene]methyl]-2-methoxy-phenoxy]acetic acid], 43 µM; under `O=[N+]([O-])c1c(Nc2cccc(O)c2)cc(Cl)c2nonc12` [3-[(7-chloro-4-nitro-benzofurazan-5-yl)amino]phenol], over 100 µM.

With `Cc1cccc(C(=O)Nc2scc(-c3ccc(Br)cc3)c2C(=O)O)c1` [4-(4-bromophenyl)-2-[(3-methylphenyl)carbonylamino]thiophene-3-carboxylic acid], the IC50 worked out at 6.2 µM. On the same count and under the same terms, then `O=C(Nc1scc(-c2ccc(Br)cc2)c1C(=O)O)c1ccccc1F` [4-(4-bromophenyl)-2-[[(2-fluorophenyl)-oxomethyl]amino]-3-thiophenecarboxylic acid], with 12 µM; and `CC(=NNC(=O)c1ccc(C)cc1)c1c(C)[nH]n(-c2ccccc2)c1=O` [4-Methyl-benzoic acid N'-[1-(3-methyl-5-oxo-1-phenyl-1,5-dihydro-pyrazol-4-ylidene)-ethyl]-hydrazide], with 95 µM; and `CC(C)c1ccc(C=Nn2c(-c3ccccc3)n[nH]c2=S)cc1` [4-[(4-Isopropyl-benzylidene)-amino]-5-phenyl-4H-[1,2,4]triazole-3-thiol], with 13 µM. Compound `Brc1cc(-c2ccccc2)nc(-c2ccccc2)n1` [4-bromo-2,6-diphenyl-pyrimidine] came in with an IC50 of 13 µM. Still for that read-out and setting: under `O=C1C=C(N2CCCCC2)c2ccccc2C1=O` [4-piperidin-1-ylnaphthalene-1,2-dione] stands 78 µM; under `CC(C)=CCc1cc([C@@H]2COc3c(ccc4c3C=CC(C)(C)O4)C2)c(O)cc1O` [5'-prenyl-glabridin], 6.1 µM; under `CC1(C)CC(=O)C(C2C3=C(CC(C)(C)CC3=O)Oc3c(Br)cc(Br)cc32)C(=O)C1` (stereo unspecified) [5,7-bis(bromanyl)-9-(4,4-dimethyl-2-oxidanyl-6-oxidanylidene-cyclohexen-1-yl)-3,3-dimethyl-4,9-dihydro-2H-xanthen-1-one], 12 µM.

For the compound `Cc1nc(N=NCc2ccc3c(c2)OCO3)sc1C` [(4,5-dimethylthiazol-2-yl)-(piperonylideneamino)amine], the IC50 was 5.8 µM. `COc1cccc(CN=Nc2cc(N3CCOCC3)ncn2)c1O` [(6E)-2-methoxy-6-[[N'-(6-morpholinopyrimidin-4-yl)hydrazino]methylene]cyclohexa-2,4-dien-1-one] displayed an IC50 of 6.1 µM. As to `CCOc1ccc(CN=Nc2cc(N3CCOCC3)nc(C)n2)c(O)c1` [(6E)-3-ethoxy-6-[[2-(2-methyl-6-morpholin-4-yl-pyrimidin-4-yl)hydrazinyl]methylidene]cyclohexa-2,4-dien-1-one], the IC50 came to 19 µM. The compound `CC(C)=CCOc1ccc([C@@H]2COc3c(ccc4c3C=CC(C)(C)O4)C2)c(O)c1` [MLS000697599] yielded an IC50 of 8.8 µM. Same read-out and setting: under `O[C@@H]1CCCN2CCc3c([nH]c4ccccc34)[C@H]12` [MLS000728593] stands 3.4 µM. On the same count and under the same terms, then `Cc1ccc(OCCCCc2c(C)n[nH]c2C)cc1` [MLS001001654], with 1.3 µM. Same read-out and setting: then `CC(C)NC(=S)NC(c1ccccc1)(c1ccccc1)c1ccccc1` [MLS001008525], with 2.7 µM.

For `COc1ccc(CC2=CC(=O)c3ccccc3C2=O)cc1` [MLS001163415], the IC50 came out at 114 µM.

`COc1ccc(Nc2nc(NN)nc(Nc3ccc(OC)cc3)n2)cc1` [MLS001185433] yielded an IC50 of over 100 µM. On to `CC[n+]1c(/C=C/N(C)c2ccccc2)n(-c2ccccc2)c2ccc(-c3nc4ccccc4s3)cc21` [MLS001207496], for which the IC50 stood at 50 µM. Consider `CC(C)(C)c1ccc(O)c(N=Cc2c(O)ccc3ccccc23)c1` [MLS001211069], for which the IC50 turned out to be 15 µM. Same read-out and setting: under `COc1cc(/C=C2/SC(=S)N(Cc3ccccc3)C2=O)ccc1O` [MLS001211321] stands 18 µM; under `O=C1C([N+](=O)[O-])=CC(Cl)=CC1/C=N/NC(=O)C(O)(c1ccccc1)c1ccccc1` (stereo unspecified) [N''''-[(E)-(3-chloro-5-nitro-6-oxocyclohexa-2,4-dien-1-ylidene)methyl]-2-hydroxy-2,2-diphenylacetohydrazide], 16 µM. Same read-out and setting: under `O=C(NC12CC3CC(CC(C3)C1)C2)c1ccc([N+](=O)[O-])o1` [N-(1-adamantyl)-5-nitrofuran-2-carboxamide] stands 6.5 µM. Same read-out and setting: then `CC(C)=CCc1c2c(c(O)c3c(=O)c4c(oc13)-c1cc(O)c(O)cc1OC4C=C(C)C)C=CC(C)(C)O2` (stereo unspecified) [SMR000470928], with 12 µM; and `C=CC(C)(C)c1c(O)c(CC=C(C)C)c(O)c2c(=O)c3ccc(O)c(O)c3oc12` [SMR000470960], with 1.8 µM. With `COc1cc(C)c(C(=O)CC(=O)c2c(C)cc(OC)cc2C)c(C)c1` [SMR000475659], the IC50 was determined as 45 µM. Same read-out and setting: then `COc1cc(OC)c([C@H]2C=C(C)[C@H]3C[C@@H]2C3(C)C)c(OC)c1` [SMR000475707], with 80 µM. Same read-out and setting: then `COc1ccc(-c2csc(NC(=O)c3ccc(C(C)(C)C)cc3)c2C(=O)O)cc1` [SMR000475974], with 22 µM; and `COc1cccc(C(=O)Oc2ccc(CN=Nc3ccc(C(=O)O)cc3)cc2OC)c1` [SMR000502791], with 21 µM. In the case of `Oc1c(Br)cc(Br)cc1CNc1cccc2cccnc12` [SMR000503121], 14 µM corresponded to half-maximal inhibition (IC50). Same read-out and setting: then `Cc1ccc(OCCn2c(S)nc3ccccc32)c(C(C)C)c1` [SMR000515074], with 19 µM; and `Clc1cccc(Cl)c1C1Nc2cccc3cccc(c23)N1` [SMR000515760], with 4.1 µM; and `CCCc1cc(=O)n2[nH]c(C)c(-c3ccc(Cl)cc3)c2n1` [SMR000518792], with 12 µM. Same read-out and setting: then `Cc1c(Cl)cccc1-c1ccc(CNCc2ccccn2)o1` [[5-(3-Chloro-2-methyl-phenyl)-furan-2-ylmethyl]-pyridin-2-ylmethyl-amine], with over 100 µM; and `CC1Oc2cc3oc4c(O)c5c(cc4c(=O)c3c(O)c2C1(C)C)C=CC(C)(C)O5` (stereo unspecified) [gerontoxanthone A], with 4.1 µM; and `CC1Oc2cc3oc4c(O)c(O)ccc4c(=O)c3c(O)c2C1(C)C` (stereo unspecified) [toxyloxanthone C], with 3.4 µM.

The next test addresses T2, Ubiquitin carboxyl-terminal hydrolase isozyme L3 (Mus musculus, UniProt Q9JKB1).
T2 sequence (Q9JKB1 whole entry): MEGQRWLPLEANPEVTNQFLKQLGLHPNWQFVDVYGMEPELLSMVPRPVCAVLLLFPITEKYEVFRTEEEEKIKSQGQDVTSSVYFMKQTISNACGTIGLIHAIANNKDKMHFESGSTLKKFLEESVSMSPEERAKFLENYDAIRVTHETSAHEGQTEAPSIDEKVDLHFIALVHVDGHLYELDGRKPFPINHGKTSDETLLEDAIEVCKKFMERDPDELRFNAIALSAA
The test is described as follows: Inhibition Activity Assay. As to conditions: pH 7.6; 25 °C.
Description: as §1
Compound `COC(=O)[C@H]1[C@H](CCc2ccccc2)NC(=O)N(Cc2ccccc2)[C@@H]1C` gave an IC50 of 116 µM. The same measure, in the same setting: then `Cc1ccccc1C(=O)Nc1scc(-c2ccc(Br)cc2)c1C(=O)O`, with 32 µM; and `CCCOc1ccc(/C=C/c2c([N+](=O)[O-])c(=O)n(C)c(=O)n2C)cc1` [1,3-dimethyl-5-nitro-6-[(E)-2-(4-propoxyphenyl)vinyl]pyrimidine-2,4-quinone], with 17 µM. Same read-out and setting: then `Cc1cc(Cl)c2oc(C(=O)N3CCC(O)(c4ccccc4)CC3)c(C)c2c1` [1-[(7-chloro-3,5-dimethyl-1-benzofuran-2-yl)carbonyl]-4-phenylpiperidin-4-ol], with 25 µM; and `Cc1ccc(-c2cc(-c3ccccc3)nc(N(C)N)n2)cc1` [1-methyl-1-[4-(4-methylphenyl)-6-phenylpyrimidin-2-yl]hydrazine], with 113 µM. On the same count and under the same terms, then `COc1ccc2nc(C3CCCCC3)nc(C3CCCCC3)c2c1` [2,4-Dicyclohexyl-6-methoxy-quinazoline], with 47 µM.
